# Measurements reported in PubChem BioAssay (NCI).
#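 Five concentrations, 48 hours, 96-well plates. Here, GI50 denotes the concentration required for 50% inhibition of growth. TGI is the concentration that stops growth completely.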
# Assays:
# Assay in all cases: NCI-60 cell line screen, 48 h
# MDA-MB-435 = system: MDA-MB-435
# NCI-H23 lung = system: NCI-H23 lung
# U251 CNS = system: U251 CNS
# SK-OV-3 ovarian = system: SK-OV-3 ovarian
# OVCAR-4 ovarian = system: OVCAR-4 ovarian
# PC-3 prostate = system: PC-3 prostate
# NCI/ADR-RES ovarian = system: NCI/ADR-RES ovarian
# SN12C renal = system: SN12C renal
# SW-620 colon = system: SW-620 colon
# HCC-2998 colon = system: HCC-2998 colon
# OVCAR-3 ovarian = system: OVCAR-3 ovarian
# SK-MEL-28 melanoma = system: SK-MEL-28 melanoma
# KM12 colon = system: KM12 colon
# UACC-62 melanoma = system: UACC-62 melanoma
# K-562 leukemia = system: K-562 leukemia
# HCT-15 colon = system: HCT-15 colon
# HL-60(TB) leukemia = system: HL-60(TB) leukemia
# CAKI-1 renal = system: CAKI-1 renal
# DU-145 prostate = system: DU-145 prostate
# RPMI-8226 leukemia = system: RPMI-8226 leukemia
# T-47D breast = system: T-47D breast
# ACHN renal = system: ACHN renal
# NCI-H226 lung = system: NCI-H226 lung
# SF-268 CNS = system: SF-268 CNS
# SR leukemia = system: SR leukemia
# HOP-92 NSCLC = system: HOP-92 NSCLC
# LOX IMVI melanoma = system: LOX IMVI melanoma
# UACC-257 melanoma = system: UACC-257 melanoma
# IGROV1 ovarian = system: IGROV1 ovarian
# SK-MEL-5 melanoma = system: SK-MEL-5 melanoma
# SF-539 CNS = system: SF-539 CNS
# HCT-116 colon = system: HCT-116 colon
# A549 NSCLC = system: A549 NSCLC
# M14 melanoma = system: M14 melanoma
# NCI-H522 lung = system: NCI-H522 lung
# 786-0 renal = system: 786-0 renal
# MDA-MB-231 breast = system: MDA-MB-231 breast
# SNB-75 CNS = system: SNB-75 CNS
# A498 renal = system: A498 renal
# SK-MEL-2 melanoma = system: SK-MEL-2 melanoma
# HS 578T breast = system: HS 578T breast
# TK-10 renal = system: TK-10 renal
# NCI-H460 lung = system: NCI-H460 lung
# SF-295 CNS = system: SF-295 CNS
# HT29 colon = system: HT29 colon
# RXF 393 renal = system: RXF 393 renal
# OVCAR-8 ovarian = system: OVCAR-8 ovarian
# SNB-19 CNS = system: SNB-19 CNS
# UO-31 renal = system: UO-31 renal
# MALME-3M melanoma = system: MALME-3M melanoma
# BT-549 breast = system: BT-549 breast
# COLO 205 colon = system: COLO 205 colon
# MOLT-4 leukemia = system: MOLT-4 leukemia
# OVCAR-5 ovarian = system: OVCAR-5 ovarian
# CCRF-CEM leukemia = system: CCRF-CEM leukemia
# HOP-62 NSCLC = system: HOP-62 NSCLC
# EKVX NSCLC = system: EKVX NSCLC
# MCF7 breast = system: MCF7 breast
smiles,measurement,setting,value
COc1cc2c(cc1I)-c1c(cc(OC)c(OC)c1OC)CC[C@@H]2NC(C)=O,GI50,MDA-MB-435,213 nM
same,TGI,MDA-MB-435,550 nM
same,GI50,NCI-H23 lung,413 nM
same,TGI,NCI-H23 lung,5650 nM
same,GI50,U251 CNS,412 nM
same,TGI,U251 CNS,12200 nM
same,GI50,SK-OV-3 ovarian,416 nM
same,TGI,SK-OV-3 ovarian,12600 nM
same,GI50,OVCAR-4 ovarian,2240 nM
same,TGI,OVCAR-4 ovarian,> 100000 nM
same,GI50,PC-3 prostate,464 nM
same,TGI,PC-3 prostate,> 42200 nM
same,GI50,NCI/ADR-RES ovarian,985 nM
same,TGI,NCI/ADR-RES ovarian,6180 nM
same,GI50,SN12C renal,589 nM
same,TGI,SN12C renal,52000 nM
same,GI50,SW-620 colon,312 nM
same,TGI,SW-620 colon,42200 nM
same,GI50,HCC-2998 colon,664 nM
same,TGI,HCC-2998 colon,6310 nM
same,GI50,OVCAR-3 ovarian,232 nM
same,TGI,OVCAR-3 ovarian,572 nM
same,GI50,SK-MEL-28 melanoma,344 nM
same,TGI,SK-MEL-28 melanoma,19100 nM
same,GI50,KM12 colon,390 nM
same,TGI,KM12 colon,5600 nM
same,GI50,UACC-62 melanoma,528 nM
same,TGI,UACC-62 melanoma,30300 nM
same,GI50,K-562 leukemia,385 nM
same,TGI,K-562 leukemia,17800 nM
same,GI50,HCT-15 colon,419 nM
same,TGI,HCT-15 colon,16800 nM
same,GI50,HL-60(TB) leukemia,461 nM
same,GI50,CAKI-1 renal,522 nM
same,TGI,CAKI-1 renal,> 47000 nM
same,GI50,DU-145 prostate,317 nM
same,TGI,DU-145 prostate,1030 nM
same,GI50,RPMI-8226 leukemia,505 nM
same,TGI,RPMI-8226 leukemia,> 100000 nM
same,GI50,T-47D breast,366 nM
same,TGI,T-47D breast,> 100000 nM
same,GI50,ACHN renal,614 nM
same,TGI,ACHN renal,33800 nM
same,GI50,NCI-H226 lung,1460 nM
same,TGI,NCI-H226 lung,22000 nM
same,GI50,SF-268 CNS,424 nM
same,TGI,SF-268 CNS,6540 nM
same,GI50,SR leukemia,391 nM
same,TGI,SR leukemia,34600 nM
same,GI50,HOP-92 NSCLC,987 nM
same,TGI,HOP-92 NSCLC,10700 nM
same,GI50,LOX IMVI melanoma,573 nM
same,TGI,LOX IMVI melanoma,18700 nM
same,GI50,UACC-257 melanoma,415 nM
same,TGI,UACC-257 melanoma,60000 nM
same,GI50,IGROV1 ovarian,323 nM
same,TGI,IGROV1 ovarian,5430 nM
same,GI50,SK-MEL-5 melanoma,290 nM
same,TGI,SK-MEL-5 melanoma,1100 nM
same,GI50,SF-539 CNS,239 nM
same,TGI,SF-539 CNS,737 nM
same,GI50,HCT-116 colon,384 nM
same,TGI,HCT-116 colon,7140 nM
same,GI50,A549 NSCLC,577 nM
same,TGI,A549 NSCLC,> 51900 nM
same,GI50,M14 melanoma,283 nM
same,TGI,M14 melanoma,2650 nM
same,GI50,NCI-H522 lung,178 nM
same,TGI,NCI-H522 lung,689 nM
same,GI50,786-0 renal,434 nM
same,TGI,786-0 renal,9260 nM
same,GI50,MDA-MB-231 breast,834 nM
same,TGI,MDA-MB-231 breast,7210 nM
same,GI50,SNB-75 CNS,388 nM
same,TGI,SNB-75 CNS,32600 nM
same,GI50,A498 renal,231 nM
same,TGI,A498 renal,725 nM
same,GI50,SK-MEL-2 melanoma,235 nM
same,TGI,SK-MEL-2 melanoma,858 nM
same,GI50,HS 578T breast,207 nM
same,TGI,HS 578T breast,593 nM
same,GI50,TK-10 renal,607 nM
same,TGI,TK-10 renal,27300 nM
same,GI50,NCI-H460 lung,374 nM
same,TGI,NCI-H460 lung,3900 nM
same,GI50,SF-295 CNS,299 nM
same,TGI,SF-295 CNS,3410 nM
same,GI50,HT29 colon,294 nM
same,TGI,HT29 colon,2670 nM
same,GI50,RXF 393 renal,211 nM
same,TGI,RXF 393 renal,569 nM
same,GI50,OVCAR-8 ovarian,526 nM
same,TGI,OVCAR-8 ovarian,14200 nM
same,GI50,SNB-19 CNS,485 nM
same,TGI,SNB-19 CNS,> 41000 nM
same,GI50,UO-31 renal,517 nM
same,TGI,UO-31 renal,> 36800 nM
same,GI50,MALME-3M melanoma,383 nM
same,TGI,MALME-3M melanoma,32000 nM
same,GI50,BT-549 breast,691 nM
same,TGI,BT-549 breast,3160 nM
same,GI50,COLO 205 colon,314 nM
same,TGI,COLO 205 colon,1360 nM
same,GI50,MOLT-4 leukemia,672 nM
same,TGI,MOLT-4 leukemia,25800 nM
same,GI50,OVCAR-5 ovarian,573 nM
same,TGI,OVCAR-5 ovarian,39100 nM
same,GI50,CCRF-CEM leukemia,411 nM
same,TGI,CCRF-CEM leukemia,> 100000 nM
same,GI50,HOP-62 NSCLC,556 nM
same,TGI,HOP-62 NSCLC,> 33000 nM
same,GI50,EKVX NSCLC,2550 nM
same,TGI,EKVX NSCLC,> 100000 nM
same,GI50,MCF7 breast,370 nM
same,TGI,MCF7 breast,20800 nM
